As a reminder, the ED50 is the dose at which the effect has come halfway, by size or by number of responders. Low readings indicate an effect at a small dose, high ones a need for a large dose.

Structures are written as SMILES. Counter-ions that a name gives are not always drawn.

The test relates to mice. In words: Analgesia, thermal radiation (tail flick) test on mice, intravenous. Format: in vivo, mice (male NMRI). Conditions: Mus musculus, 20 min, determined at effective maximum 20 minutes after administration, effect = latency ≥150% of pre-test average. The text has this: Testing for analgesia using the tail flick test on mice
The analgesic effectiveness of the compounds according to the invention was investigated in the thermal radiation (tail flick) test on mice using the method of D'Amour and Smith (J. Pharm. Exp. Ther. 72, 74-79 (1941). Male NMRI mice with a weight between 20 and 24 g were used for this purpose. The animals were placed individually in special test cages and the bases of their tails were exposed to the focused thermal radiation from an electric lamp (Rhema Analgesiemeter Type 3010). The lamp intensity was adjusted so that the time from switching on the lamp until the sudden twitching away of the tail (latency of pain) was 3-5 seconds for untreated animals. Before the administration of a compound according to the invention, the animals were pre-tested twice within five minutes and the average value of these measurements was calculated as the pre-test average. The pain measurement was made 20, 40 and 60 minutes after intravenous administration. When the latency of pain increased, the maximum time of exposure was restricted to 12 seconds and an increase in the latent period to ≥150% of the pre-test average value was assessed as an analgesic effect. In order to determine the dosage-dependency, the respective compound according to the invention was applied in doses increasing logarithmically by a factor of 3-5, which included the threshold and the maximum effective dose each time. The ED50 values were determined from the number of analgesic animals by the method of Litchfield and Wilcoxon (J. Pharm. Exp. Ther. 96, […], (1949)). Determination of the ED50 was made at the effective maximum 20 minutes after intravenous administration of the substance.

Turning to `COc1cccc([C@@]2(O)CC[C@H](Cc3ccccc3)C[C@@H]2CN(C)C)c1.Cl` (racemic) [(35), (1RS,2RS,4SR)-4-benzyl-2-dimethylaminomethyl-1-(3-methoxy-phenyl)-cyclohexanol hydrochloride], the 50% effect level (ED50) was put at a dose of 2.43 mg/kg. The same measure for `CN(C)C[C@H]1C[C@@H](OCC2CCCC2)CC[C@]1(O)c1cccc(OC2CCCC2)c1.Cl` (racemic) [(60), (1RS,2RS,4SR)-4-cyclopentylmethoxy-1-(3-cyclopentyl-oxy-phenyl)-2-dimethylaminomethyl-cyclohexanol hydrochloride]: 2.46 mg/kg; for `C=C(C)CO[C@H]1CC[C@](O)(c2cccc(OC)c2)[C@@H](CN(C)C)C1` (relative stereo) [(14), (1RS,2RS,4SR)-2-dimethylaminomethyl-1-(3-methoxy-phenyl)-4-(2-methyl-2-allyloxy)-cyclohexanol hydrochloride]: 0.379 mg/kg; for `CN(C)C[C@H]1C[C@@H](CCC2CCCC2)CC[C@]1(O)c1cccc(OC2CCCC2)c1` [(71), hydrochloride]: 3.35 mg/kg. For `CN(C)C[C@H]1C[C@@H](OCc2ccccc2)CC[C@]1(O)c1cccc(O)c1.Cl` [(85), (+)-(1R, 2R, 4S)-3-(4-benzyloxy-2-dimethylaminomethyl-1-hydroxycyclohexyl)-phenol hydrochloride], the ED50 was 0.068 mg/kg.

`COc1cccc([C@@]2(O)CC[C@H](OCc3ccc(Cl)cc3)C[C@@H]2CN(C)C)c1.Cl` [(93), (+)-(1R, 2R, 4S)-4-(4-chloro-benzyloxy)-2-dimethylaminomethyl-1-(3-methoxyphenyl)-cyclohexanol hydrochloride] came in with a 50% effective dose (ED50) of 0.37 mg/kg. The same measure for `COc1cccc([C@@]2(O)CC[C@H](OCc3ccccc3)C[C@@H]2CN(C)C)c1.Cl` [[(+)1], (1R,2R,4S)-4-benzyloxy-2-dimethylaminomethyl-1-(3-methoxy-phenyl)-cyclohexanol hydrochloride]: 0.049 mg/kg; for `CSc1cccc([C@@]2(O)CC[C@H](OCc3ccccc3)C[C@@H]2CN(C)C)c1` [[(+)6], (1R,2R,4S)-4-benzyloxy-2-[(dimethylamino)methyl]-1-(3-methyl-sulphanyl-phenyl)-cyclohexanol hydrochloride]: 0.19 mg/kg; for `COc1cccc([C@]2(O)CC[C@@H](OCc3ccccc3)C[C@H]2CN(C)C)c1.Cl` [[(-)1], (1S,2S,4R)-4-benzyloxy-2-dimethylaminomethyl-1-(3-methoxy-phenyl)-cyclohexanol hydrochloride]: 0.822 mg/kg.

Values taken from patent US5801201A, “1-phenyl-2-dimenthylaminomethyl-cyclohexan-1-ol compounds as pharmaceutical active ingredients” (priority 1995, dated 1998).
